From a melting point compilation (Tetko et al.; mined from patent text by program, amines drawn as free bases though some values may be those of a salt)

Compound	melting point [°C]
CCCCCCCCCCCCCCOCC(COCCCCCCCCCCCCCC)(CC(=O)N(C)C)CC(=O)N(C)C	52 to 54
COC(=O)c1nc(-c2ccccc2)n2c1CN=C(c1ccccc1Cl)c1cc(Cl)ccc1-2	272 to 275
CCOC(=O)c1c(N)c2cc(Cl)ccc2n1C(=O)C(F)(F)F	249 to 251
O=C(O)c1cn(C2CC2)c2nc(N3CCCC(n4ccnn4)C3)c(F)cc2c1=O (centres undefined)	251 to 254
COc1cc2ccc(C(=O)C(C)C)cc2cc1OC	103 to 105
CC(C)Nn1c(CO)nc2c(N)nc3cccnc3c21	242 to 243
CC(C)(C)C(O)C(Oc1ccccc1)n1ccnc1 (centres undefined)	99 to 105
CN1CCOC(C2=C(C#N)C(c3cccc4nonc34)c3c[nH]nc3N2)C1 (centres undefined)	143
CNc1cc([N+](=O)[O-])cc([N+](=O)[O-])c1	153 to 154
COc1ccc(C=Cc2nc3c(OC)c(C)c(C)c(OC)c3[nH]2)cc1OC	116 to 119
CCCn1c(=O)c2[nH]c(-c3cc(C)n(CC(=O)Nc4ccc(C)cc4)n3)nc2n(CCC)c1=O	> 300
Cn1ncc2c1-c1c(Oc3ccc4c(c3)OCO4)sc(C#N)c1CC2	132 to 134
COc1ccccc1NC1CN([C@H]2CC[C@@H](c3c[nH]c4ccccc43)CC2)C1	67 to 70
CC(=O)c1sc(N2CCN(CCCC(F)(F)F)C2=O)nc1C	108 to 110
O=C1NC(=O)C(Cc2cc(O)c(O)c([N+](=O)[O-])c2)C(=O)N1	263 to 266
COc1cccc(-c2cc3nccnc3[nH]2)c1	194 to 196
O=[N+]([O-])C=Cc1cccc(Cl)c1Cl	89 to 91
Cc1c(Cl)nc(-c2ccc([N+](=O)[O-])o2)nc1Cl	174 to 175
COC1=CCc2cccc(N)c2C1	84 to 85
CCCCCCCCCCCCSCN(O)CSCCCCCCCCCCCC	63 to 65
CC1CCC(c2cccc(NC(=O)N3CCC4(CC3)OCCO4)c2)(N2CCN(c3ccccc3)CC2)CC1 (centres undefined)	245 to 247
CCOC(=O)CNC(=O)CCCCCNC(=O)c1cccc(C(F)(F)F)c1	102 to 104

Compound	melting point [°C]
COc1ccc2[nH]cc(CCN3CCC(Oc4ccc(F)cc4)CC3)c2c1	132 to 134
Cc1nc(C2CC2)nc(C)c1N1CCCn2c1nc1c(Cl)ccc(C(OC(F)F)C(F)(F)F)c12 (centres undefined)	191 to 193
CC(C)NC(=O)c1n[nH]cc1NC(=O)c1ccccn1	254 to 255
CCOC(=O)COc1cc(OC)c2c(c1S(N)(=O)=O)OC1(CCCCC1)CC2=O	188 to 190
CCOC(=O)c1c(C(F)(F)F)nc(C(F)F)c(C(=O)OC)c1C1CO1 (centres undefined)	57.5 to 59
O=C(OCCCCCCCCCCCCCCCCOc1ccc(-c2cccc(F)c2F)cc1)C(CCCCCCO)CCCCCCO	45.2 to 48.8
C1CNCCSCCNCCN1	51 to 54
CCCCCCCCCCCCCCCCNC(=O)c1cc(O)cc(O)c1	154 to 156
C=CCN(C#N)c1c(Cl)ccc2nsnc12	62 to 63
C#CC1(O)CCC2C3C(C)CC4=CC(=O)CCC4C3CCC21CC (centres undefined)	182 to 184
O=C(NCCN1CCOCC1)N1c2ccccc2-c2noc3c2C1CCC3 (centres undefined)	176 to 178
Cc1c(C)c2c(c(C)c1NC(=O)CC(C)(C)C)C(c1ccc(C(C)O)cc1)CO2 (centres undefined)	144 to 145
FC(F)(F)Oc1ccc(C2=CCC3(CC2)OCCO3)cc1	53.9 to 55.5
Cc1c(C)c2c(c(C)c1O)CCC(C)(C(=O)N1CCC(c3ccc(N)cc3)CC1)O2 (centres undefined)	153 to 154
O=[N+]([O-])c1cccc2c(Cl)c(Cl)cnc12	123
COC(=O)c1cc2cc(OC)c(OC)cc2c(C)c1C(=O)OC	142 to 144
CC1C(C)(C)C2=C(c3oncc3CC2)C1(C)C (centres undefined)	81
CC1(C)CN(C2CC3(C)C(CCC4C3CCC3(C)C(C(=O)CSC#N)CCC43)CC2O)CCO1 (centres undefined)	166
COc1cc2cc3ncc(C#N)c(Cl)c3cc2cc1OC	> 265
COc1ccc(NC(=O)c2c[nH]c3c2C(=O)CC(C)(C)C3)c(F)c1	203 to 205
COc1cc2c(c3c1OC(C)(C)C3)C(c1ccc(=O)n(C)c1)=NC(C)(C)C2	158 to 159

The remaining lines, values ahead:

melting point [°C]	Compound
176 to 177	CC1=CC(OC(=O)C=Cc2ccc(O)cc2)C(O)C(C)(C)CC1=O (centres undefined)
91 to 94	COC(=O)c1ccccc1NC(=O)NCC1(c2ccccc2)CCCCC1
223	CS(=O)(=O)c1c(N2CCN(C(=O)c3cccs3)CC2)c2cccnc2n(Cc2ccccc2)c1=O
175 to 177	Cc1cc(-c2ccco2)ccc1-c1cc(C(F)(F)F)nn1-c1ccc(S(C)(=O)=O)cc1
300	Brc1cc2c(cn1)[nH]c1ccccc12
155 to 157	CC(C(=O)O)c1ccc2c(c1)oc1ccc(Cl)cc12 (single isomer, unassigned; (+))
52 to 53	CC(=O)OC[C@](O)(CO)c1ccc(F)cc1F
88 to 89	Cc1ccc2ccc3c(c2c1)C(C)(C)C(=O)O3
94 to 96	CC(=O)NCc1cccc(C#N)c1
53 to 54	CCOC(=O)c1nc2ccccc2nc1CC
67 to 79	COC(=O)c1csc(-c2ccc(OC)cc2)n1
185 to 187	COc1ccc(C(=O)Nc2ccccc2)cc1NCc1ccc2c(c1)OCO2
188 to 190	COc1ccc(-c2c([N+](=O)[O-])cnc3ccc(Cl)cc23)cc1OC
132 to 134	CCN(CC)CCN1C(=O)Nc2ccncc2C1c1ccccc1 (centres undefined)
180	CCS(=O)(=O)Nc1cccc(C=C2c3ccccc3CCc3ccccc32)c1
243 to 247	COc1ccccc(NC(=O)C2=C(O)c3ccccc3S(=O)(=O)N2C)c1=O
202 to 205	O=c1c2c(Br)cc(Br)cc2n(Cc2ccccc2)c(=O)n1Cc1ccccc1Cl
200 to 202	CC(=O)Nc1ccccc1CC1NC(=O)NC1=O (centres undefined)
118 to 119	O=C(c1ccccc1CBr)c1cc(F)ccc1CBr

melting point [°C]	Compound
218	COC(=O)c1cccc(C2C(C(=O)c3ccc(OC)cc3)=C(O)C(=O)N2c2nnc(C)s2)c1 (centres undefined)
151 to 152	CCOC(=O)c1cn(C)cc(-c2cccc(C(F)(F)F)c2)c1=O
260 to 262	Cc1nc(NC(=O)c2ccn(-c3ccccc3)c(=O)c2)sc1C(=O)NCc1ccccc1
127 to 128	N#Cc1ccccc1OCCCC(=O)O
127 to 129	OCCc1ncn(C(c2ccccc2)(c2ccccc2)c2ccccc2)n1
202	CC(=O)Nc1ccc(Oc2ncc(Cl)cn2)cc1
168 to 170	Cc1ccccc1Cn1cc(-c2cn(C3CC(O)C(CO)O3)c(=O)[nH]c2=O)nn1 (centres undefined)
103 to 125	COCCc1nc2c(N)nc3ccccc3c2n1CC(C)(C)CNC(=O)c1ccccc1
258 to 260	CCCONNc1nc(C(=O)c2ccccc2O)nc(C(=O)c2ccccc2O)n1
186	CN(C)C=Nc1c(I)c(=O)n(Cc2ccccc2)c(=O)n1C
135	COc1ccc(CNc2nc(CCC(=O)O)nc3sc4c(c23)CCCC4)cc1Cl
110	CC(C)(C)OC(=O)c1ccc(N(Cc2ccc(C(=O)O)cc2)Cc2cc(Br)ccc2OCc2ccccc2)cc1
217	COc1ccc(-c2cc3ccccc3[nH]2)cc1O
267 to 268	O=C(O)c1ccc(C=C2CCc3cc(OCCn4ccnc4)ccc3C2=O)cc1
258 to 260	O=c1[nH]c2cc(Cl)c(Cl)cc2[n+]([O-])c1-c1cccc(Oc2ccccc2)c1
153 to 155	Cc1cccc(-c2[nH]c(C(C)C)nc2-c2cccc(-c3ccccc3F)c2)n1
105 to 107	CC(C)c1nn(Cc2ccc(Cl)cc2Cl)cc1CCCOc1cc(CCC(=O)O)n(-c2ccccc2)n1
130 to 133	CCCc1c(OCCCC(=O)O)ccc(C(C)=O)c1O
132 to 133	CC(C)CC(C)Oc1c(-c2ccc(S(C)(=O)=O)cc2)cnn(-c2ccc(F)c(F)c2)c1=O (centres undefined)

melting point [°C]	Compound
170	CC(=O)CCc1ccc2c(c1)Cc1cc(O)ccc1-2
195 to 198	CCOC(=O)c1cn(Cc2ccc(-c3ccccc3-c3nnnn3C(c3ccccc3)(c3ccccc3)c3ccccc3)cc2)c2sc(CC)cc2c1=O
169 to 190	O=C(C=Cc1ccc(Br)cc1)c1cc(Br)ccc1[N+](=O)[O-]
82	Nc1cccc(CNC(=O)C2Cc3ccccc3N2S(=O)(=O)c2ccc(-c3cccc(C(F)(F)F)c3)cc2)c1 (centres undefined)
116	CC[C@H](C)C(OCc1ccccc1)[C@@H]1[C@H]([N+](=O)[O-])[C@H](c2ccccc2)N(C(=O)CN)[C@]1(C)C(=O)NCCC(=O)O (some centres undefined)
79 to 82	ClC1c2ccccc2CSc2ccccc21 (centres undefined)
195	Cc1cccc(-c2csc(N3C(=O)c4ccccc4C3=O)c2C(=O)O)c1
276 to 281	O=C1Nc2ccccc2C(c2ccccc2)N1C1CCN(CC2CC2)CC1 (centres undefined)
97 to 99	NC(=O)N(O)CC#CCOc1ccccc1
258 to 260	O=C1CCC(N2Cc3c(OCC4Cc5ccccc5O4)cccc3C2=O)C(=O)N1 (centres undefined)
92	O=S(=O)(Cc1ccc(O)cc1)Cc1ccc(O)cc1
82 to 83	CCOC(=O)CCc1cn(Cc2cc(OCc3nc(-c4ccccc4)oc3C)no2)nc1OCC
140 to 141	COc1ccc2c(c1)N(c1ccc(F)cc1)C(=O)C2(C)N (centres undefined)
228 to 230	CC(C)=CCOc1ccc(C(=O)C=Cc2c[nH]c3ccccc23)c(O)c1
103 to 105	CCc1ccc(C(=O)Nc2ccccc2O)cc1
149 to 151	COC1CCN(Cc2ccc(COc3cccc4c3CN(C3CCC(=O)NC3=O)C4=O)cc2)CC1 (centres undefined)
81 to 83	Cc1ccc(S(=O)(=O)N2CCN([C@H](C)[C@](O)(Cn3cncn3)c3ccc(F)cc3F)CC2)cc1
79	OC/C(=C(\CO)c1ccccc1)c1ccccc1
